Results published in patent US20230150924A1, “NOVEL COMPOUND HAVING CANCER METASTASIS INHIBITORY ACTIVITY, PREPARATION METHOD THEREFOR, AND PHARMACEUTICAL COMPOSITION FOR INHIBITING CANCER METASTASIS AND INVASION OR TREATING COLORECTAL CANCER, COMPRISING COMPOUND” (CELLGENTEK CO., LTD., priority 2019, published 2023).

Key:
[1] = test system: KAI1 promoter; assay: KAI1 promoter luciferase reporter assay in transfected Caco2 cells; type: cell-based, human; details: 1 μM compound, 16 hours, transfected Caco2 cells, luciferase activity relative to DMSO control (=1); for fold induction at 1 µM: Homo sapiens, Caco-2, 16 h, read-out: Relative KAI promoter activity
[2] = test system: invasion of colorectal cancer cells; assay: In vivo relative invation (invasion; EV and KITENIN controls, no method described); details: relative to EV (=1); KIT = KITENIN

Compound	fold induction at 1 µM [1]	In vivo relative invation [2]	Relative KAI promoter activity [1]
O=C(CNC(=O)c1ccccc1OC1CCN(C(=O)C2CC2)CC1)c1ccccc1 [Example 166, 2-((1-(cyclopropanecarbonyl)piperidin-4-yl)oxy)-N-(2-oxo-2-phenylethyl)benzamide]	1.01	1.094	
O=C(CNC(=O)c1ccccc1OC1CCN(C(=O)C2CCC2)CC1)c1ccccc1 [Example 167, 2-((1-(cyclobutanecarbonyl)piperidin-4-yl)oxy)-N-(2-oxo-2-phenylethyl)benzamide]	1.04	1.159	
O=C(CNC(=O)c1ccccc1OC1CCN(C(=O)c2cccs2)CC1)c1ccccc1 [Example 168, N-(2-oxo-2-phenylethyl)-2-((1-(thiophene-2-carbonyl)piperidin-4-yl)oxy)benzamide]	1.05	1.199	
COCc1ccccc1C(=O)N1CCC(Oc2ccccc2C(=O)NCC(=O)c2ccccc2)CC1 [Example 169, 2-((1-(2-(methoxymethyl)benzoyl)piperidin-4-yl)oxy)-N-(2-oxo-2-phenylethyl)benzamide]	0.99	1.186	
CC(C)(C)CC(=O)N1CCC(Oc2ccccc2C(=O)NCC(=O)c2ccccc2)CC1 [Example 170, 2-((1-(3,3-dimethylbutanoyl)piperidin-4-yl)oxy)-N-(2-oxo-2-phenylethyl)benzamide]	1.03	1.244	
O=C(CNC(=O)c1ccccc1OC1CCN(C(=O)N2CCOCC2)CC1)c1ccccc1 [Example 171, 2-((1-(morpholine-4-carbonyl)piperidin-4-yl)oxy)-N-(2-oxo-2-phenylethyl)benzamide]	1.07	1.191	
CCCCC(=O)N1CCC(Oc2ccccc2C(=O)NCC(=O)c2ccccc2)CC1 [Example 172, N-(2-oxo-2-phenylethyl)-2-((1-pentanoylpiperidin-4-yl)oxy)benzamide]	0.93	1.16	
COc1ccc(C(=O)N2CCC(Oc3ccccc3C(=O)NCC(=O)c3ccccc3)CC2)cc1 [Example 173, 2-((1-(4-methoxybenzoyl)piperidin-4-yl)oxy)-N-(2-oxo-2-phenylethyl)benzamide]	1.07	1.121	
O=C(CNC(=O)c1ccccc1OC1CCN(S(=O)(=O)c2cccc([S](=O)=O)c2)CC1)c1ccccc1 [Example 175, 2-((1-((3-(dioxo-15-sulfanyl)phenyl)sulfonyl)piperidin-4-yl)oxy)-N-(2-oxo-2-phenylethyl)benzamide]		1.149	0.97
CC(=O)Oc1ccccc1C(=O)N1CCC(Oc2ccccc2C(=O)NCC(=O)c2ccccc2)CC1 [Example 176, 2-(4-(2-((2-oxo-2-phenylethyl)carbamoyl)phenoxy)piperidine-1-carbonyl)phenylacetate]	1.08	1.26	
O=C(CNC(=O)c1ccccc1OC1CCN(C(=O)c2ccc(F)cc2F)CC1)c1ccccc1 [Example 177, 2-((1-(2,4-difluorobenzoyl)piperidin-4-yl)oxy)-N-(2-oxo-2-phenylethyl)benzamide]	0.95	1.159	
COCC(=O)N1CCC(Oc2ccccc2C(=O)NCC(=O)c2ccccc2)CC1 [Example 178, 2-((1-(2-methoxyacetyl)piperidin-4-yl)oxy)-N-(2-oxo-2-phenylethyl)benzamide]	0.91	1.228	
CC(C)(C)C(=O)N1CCC(Oc2ccccc2C(=O)NCC(=O)c2ccccc2)CC1 [Example 179, N-(2-oxo-2-phenylethyl)-2-((1-pivaloylpiperidin-4-yl)oxy)benzamide]	0.97	1.081	
CN(C)C(=O)N1CCC(Oc2ccccc2C(=O)NCC(=O)c2ccccc2)CC1 [Example 180, N,N-dimethyl-4-(2-((2-oxo-2-phenylethyl)carbamoyl)phenoxy) piperidine-1-carboxamide]	1.09	1.253	
O=C(CNC(=O)c1ccccc1OC1CCN(C(=O)c2ccc(Br)cc2)CC1)c1ccccc1 [Example 181, 2-((1-(4-bromobenzoyl)piperidin-4-yl)oxy)-N-(2-oxo-2-phenylethyl)benzamide]	1.06	1.194	
CC(=O)N1CCC(Oc2ccccc2C(=O)NCC(=O)c2ccccc2)CC1 [Example 182, 2-((1-acetylpiperidin-4-yl)oxy)-N-(2-oxo-2-phenylethyl)benzamide]	0.93	1.095	

Compound	fold induction at 1 µM [1]	In vivo relative invation [2]	Relative KAI promoter activity [1]
CS(=O)(=O)N1CCC(Oc2ccccc2C(=O)NCC(=O)c2ccccc2)CC1 [Example 183, 2-((1-(methylsulfonyl)piperidin-4-yl)oxy)-N-(2-oxo-2-phenylethyl)benzamide]	0.96	1.194	
O=C(CNC(=O)c1ccccc1OC1CCN(S(=O)(=O)c2ccc(F)cc2)CC1)c1ccccc1 [Example 184, 2-((1-((4-fluorophenyl)sulfonyl)piperidin-4-yl)oxy)-N-(2-oxo-2-phenylethyl)benzamide]	0.98	1.114	
Cc1ccc(S(=O)(=O)N2CCC(Oc3ccccc3C(=O)NCC(=O)c3ccccc3)CC2)cc1 [Example 185, N-(2-oxo-2-phenylethyl)-2-((1-tosylpiperidin-4-yl)oxy)benzamide]	1.12	1.114	
O=C(CNC(=O)c1ccccc1OC1CCN(S(=O)(=O)c2ccc(Cl)cc2)CC1)c1ccccc1 [Example 186, 2-((1-((4-chlorophenyl)sulfonyl)piperidin-4-yl)oxy)-N-(2-oxo-2-phenylethyl)benzamide]	1.06	1.145	
O=C(CNC(=O)c1ccccc1OC1CCN(S(=O)(=O)c2ccccc2)CC1)c1ccccc1 [Example 187, N-(2-oxo-2-phenylethyl)-2-((1-(phenylsulfonyl)piperidin-4-yl)oxy)benzamide]	1.03	1.235	
O=C(CNC(=O)c1ccccc1OC1CCN(S(=O)(=O)Cc2ccccc2)CC1)c1ccccc1 [Example 188, 2-((1-(benzylsulfonyl)piperidin-4-yl)oxy)-N-(2-oxo-2-phenylethyl)benzamide]	0.92	1.123	
COc1ccc(S(=O)(=O)N2CCC(Oc3ccccc3C(=O)NCC(=O)c3ccccc3)CC2)cc1 [Example 189, 2-((1-((4-methoxyphenyl)sulfonyl)piperidin-4-yl)oxy)-N-(2-oxo-2-phenylethyl)benzamide]	0.9	1.185	
O=C(CNC(=O)c1ccccc1OC1CCN(C(=O)c2cc(C(F)(F)F)cc(C(F)(F)F)c2)CC1)c1ccccc1 [Example 190, 2-((1-(3,5-bis(trifluoromethyl)benzoyl)piperidin-4-yl)oxy)-N-(2-oxo-2-phenylethyl)benzamide]	0.83	1.203	
O=C(CNC(=O)c1ccccc1OC1CCN(C(=O)c2ccccc2C(F)(F)F)CC1)c1ccccc1 [Example 191, N-(2-oxo-2-phenylethyl)-2-((1-(2-(trifluoromethyl)benzoyl)piperidin-4-yl)oxy)benzamide]	0.84	1.106	
O=C(CNC(=O)c1ccccc1OC1CCN(C(=O)c2cccc(C(F)(F)F)c2)CC1)c1ccccc1 [Example 192, N-(2-oxo-2-phenylethyl)-2-((1-(3-(trifluoromethyl)benzoyl)piperidin-4-yl)oxy)benzamide]	0.92	1.25	
O=C(CNC(=O)c1ccccc1OC1CCN(C(=O)c2ccc(C(F)(F)F)cc2)CC1)c1ccccc1 [Example 193, N-(2-oxo-2-phenylethyl)-2-((1-(4-(trifluoromethyl)benzoyl)piperidin-4-yl)oxy)benzamide]	0.82	1.214	
O=C(CNC(=O)c1ccccc1OC1CCN(C(=O)c2ccc(F)cc2Cl)CC1)c1ccccc1 [Example 194, 2-((1-(2-chloro-4-fluorobenzoyl)piperidin-4-yl)oxy)-N-(2-oxo-2-phenylethyl)benzamide]	1.01	1.259	
O=C(CNC(=O)c1ccccc1OC1CCN(C(=O)c2cccc([N+](=O)[O-])c2)CC1)c1ccccc1 [Example 195, 2-((1-(3-nitrobenzoyl)piperidin-4-yl)oxy)-N-(2-oxo-2-phenylethyl)benzamide]	1.08	1.139	
O=C(CNC(=O)c1ccccc1OC1CCN(C(=O)c2ccc(F)c(F)c2)CC1)c1ccccc1 [Example 196, 2-((1-(3,4-difluorobenzoyl)piperidin-4-yl)oxy)-N-(2-oxo-2-phenylethyl)benzamide]	0.84	1.113	
O=C(CNC(=O)c1ccccc1OC1CCN(C(=O)c2cc(Cl)cc(Cl)c2)CC1)c1ccccc1 [Example 197, 2-((1-(3,5-dichlorobenzoyl)piperidin-4-yl)oxy)-N-(2-oxo-2-phenylethyl)benzamide]	0.92	1.214	
